Laboratory results from patent US20230338294A1, “NOVEL PHARMACEUTICAL FORMULATION FOR C-MET INHIBITOR” (APOLLOMICS INC., priority 2020, published 2023).

Assays:
[1] = Two stage 'gastric transfer' non-sink biorelevant dissolution test; format: physicochemical; details: for Cmax FaSSIF: intestinal stage FaSSIF pH 6.8; for AUC35-210 FaSSIF: 35-210 minutes in FaSSIF; for C210: concentration at 210 minutes
Method: Biorelevant drug dissolution performance for bulk API and subsequent ASDs was evaluated by Patheon's two stage ‘gastric transfer’ non-sink dissolution test, which simulates pH and bile salt concentrations for both gastric and intestinal exposure in a simple to perform assay. Pre-weighed powder is briefly suspended in media (e.g. by 10 sec vortex mixing with 4.0 mL media) and transferred to a pre-heated (37° C.) volume of 50 mL of 0.1N HCl (aq) pH ˜1.0, without pepsin or bile salts), in a USP Type 2 mini-vessel (100 mL total vessel volume) while stirring (paddles) at 100 rpm. After 30 minutes of gastric pH exposure, an equal volume of PBS buffered, 2× concentrated fasted-state simulated intestinal fluid (FaSSIF) is added to the HCl, resulting in a final pH of 6.8 in FaSSIF (100 mM PBS containing 2.24 mg/mL FaSSIF/FeSSIF/FaSSGF powder (Biorelevant Inc.) in a total volume of 100 mL. Aliquots (1.0 mL) of dissolution media are taken at the following time points: 10, 25, 35, 50, 70, 120 and 210 minutes. The first two aliquots are taken from the simulated gastric media, with the remaining five aliquots from the intestinal media. Aliquots are spun-down (13000 rpm) to pellet out undissolved solids, and the supernatant sampled and further diluted in an appropriate diluent to determine API total drug concentration (e.g. free and colloidal/polymer-bound drug in solution) utilizing a suitable HPLC method. The volume of FaSSIF added is adjusted to account for the sampling volume removed prior to gastric transfer (typically 4×1.0 mL). Initial API concentration in dissolution samples was determined utilizing a HPLC method.
The dissolution performance of the feasibility SDIs and bulk APL-101 was tested in a biorelevant non-sink dissolution experiment as described in EXAMPLE 1. The design of this experiment is to rank order and select lead formulations. […] 20% and 33% active HPMCAS-H and 20% active HPMC-E3LV and PVP-VA based formulations were nominated as the lead formulations.

[2] = Glass transition temperature (Tg) by modulated DSC; format: physicochemical; details: MDSC
Method: DSC was performed using a TA Instruments Discovery DSC2500 differential scanning calorimeter equipped with a TA instruments Refrigerated Cooling System 90 operating in either modulated or ramp mode. DSC was used to measure thermodynamic events and characteristics of APL-101 bulk API and subsequent Spray Dried Intermediates (SDIs). Events observed include the glass transition temperature (Tg) defined as the temperature at which amorphous materials transition from a low mobility glassy state to a high mobility rubbery state, cold crystallization (Tc), defined as a crystallization event at a temperature lower than the melt temperature, and melting temperature (Tm). SDI samples were placed in non-hermetic aluminum pans and heated at a constant rate of 2.0° C./min over a 25-200° C. temperature range. The system was purged by nitrogen flow at 50 mL/min to ensure inert atmosphere through the course of measurement. APL-101 was initially analyzed by standard DSC with a heating rate of 10° C./min ramping up to 221° C. […] The resulting amorphous API was analyzed by modulated DSC to determine the glass transition temperature. […]
Thermal properties of bulk APL-101 were measured by DSC. Three API lots were tested, and it was determined that there were two API forms, Forms A and B, both of which are thought to be hydrates. […]

Cmax FaSSIF ([1]; Table 3, feasibility SDIs)	AUC35-210 FaSSIF ([1]; Table 3)	C210 ([1]; Table 3)	Cmax FaSSIF ([1]; Table 6, prototype SDI)	AUC35-210 FaSSIF ([1]; Table 6)	C210 ([1]; Table 6)	Tg [2]	Tm/Tg ratio ([2]; indicative of moderate physical stability)	dissolution performance ([1]; gastric and intestinal media, in words)	SMILES
8.9 μgA/mL	1400 min*μgA/mL	7.8 μgA/mL	8.9 μgA/mL	1400 min*μgA/mL	7.8 μgA/mL	89 °C	1.37 K/K		Cn1cc2cc(C(F)(F)c3nnc4ccc(-c5cnn(C6CC6)c5)nn34)c(F)cc2n1 [APL-101 Form B, 6-(1-cyclopropylpyrazol-4-yl)-3-[difluoro-(6-fluoro-2-methylindazol-5-yl)methyl]-[1,2,4]triazolo[4,3-b]pyridazine]
								very low dissolution performance	Cn1cc2cc(C(F)(F)c3nnc4ccc(-c5cnn(C6CC6)c5)nn34)c(F)cc2n1 [APL-101, 6-(1-cyclopropylpyrazol-4-yl)-3-[difluoro-(6-fluoro-2-methylindazol-5-yl)methyl]-[1,2,4]triazolo[4,3-b]pyridazine]
